Test results taken from patent publication US9149038B2, “4-amino-6-(heterocyclic)picolinates and 6-amino-2-(heterocyclic)pyrimidine-4-carboxylates and their use as herbicides” (Dow AgroSciences LLC, priority 2013, dated 2015).
Where two headings read alike, the source gives them in different places.

How the values were obtained:
[1] = test system: Key Broadleaf Weed and Crop Species; experiment: Post-Emergent Test II: postemergent herbicidal activity, visual rating after 14 d (Table 7); type: in vivo; details: post-emergence, 336 h; for pest or weed control at 35 g/ha: 35 g ai/ha; for pest or weed control at 70 g/ha: 70 g ai/ha; for pest or weed control at 140 g/ha: 140 g ai/ha
Method in brief: (§1)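 Greenhouse-grown plants at the first or second true leaf stage (7-21 d, ~15 h photoperiod, 23-29° C day) were sprayed with compound in acetone/DMSO-based aqueous spray containing crop oil concentrate and Triton X-155 at 187 L/ha. Injury versus untreated plants was rated visually after 14 d on a 0-100 scale.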

[2] = test system: Key Grass and Sedge Weeds as well as Grass Crops; experiment: Post-Emergent Test II: postemergent herbicidal activity, visual rating after 14 d (Table 8); type: in vivo; details: post-emergence, 336 h; for pest or weed control at 35 g/ha: 35 g ai/ha; for pest or weed control at 70 g/ha: 70 g ai/ha; for pest or weed control at 140 g/ha: 140 g ai/ha
Method in brief: as §1

[3] = lambsquarters (Chenopodium album), read-out: Visual Growth Reduction (%) 14 Days After Application CHEAL
[4] = oilseed rape, canola (Brassica napus), read-out: Visual Growth Reduction (%) 14 Days After Application BRSNN
[5] = redroot pigweed (Amaranthus retroflexus), read-out: Visual Growth Reduction (%) 14 Days After Application AMARE
[6] = sunflower (Helianthus annuus), read-out: Visual Growth Reduction (%) 14 Days After Application HELAN
[7] = velvetleaf (Abutilon theophrasti), read-out: Visual Growth Reduction (%) 14 Days After Application ABUTH
[8] = wild poinsettia (Euphorbia heterophylla), read-out: Visual Growth Reduction (%) 14 Days After Application EPHHL
[9] = barnyardgrass (Echinochloa crus-galli), read-out: Visual Growth Reduction (%) 14 Days After Application ECHCG
[10] = giant foxtail (Setaria faberi), read-out: Visual Growth Reduction (%) 14 Days After Application SETFA
[11] = maize, corn (Zea mays), read-out: Visual Growth Reduction (%) 14 Days After Application ZEAMX
[12] = rice (Oryza sativa), read-out: Visual Growth Reduction (%) 14 Days After Application ORYSA
[13] = wheat, spring (Triticum aestivum), read-out: Visual Growth Reduction (%) 14 Days After Application TRZAS
[14] = yellow nutsedge (Cyperus esculentus), read-out: Visual Growth Reduction (%) 14 Days After Application CYPES

SMILES | pest or weed control at 35 g/ha [1, 3] [%] | pest or weed control at 70 g/ha [1, 3] [%] | pest or weed control at 140 g/ha [1, 3] [%] | pest or weed control at 35 g/ha [1, 4] [%] | pest or weed control at 70 g/ha [1, 4] [%] | pest or weed control at 140 g/ha [1, 4] [%] | pest or weed control at 35 g/ha [1, 5] [%] | pest or weed control at 70 g/ha [1, 5] [%] | pest or weed control at 140 g/ha [1, 5] [%] | pest or weed control at 35 g/ha [1, 6] [%] | pest or weed control at 70 g/ha [1, 6] [%] | pest or weed control at 140 g/ha [1, 6] [%] | pest or weed control at 35 g/ha [1, 7] [%] | pest or weed control at 70 g/ha [1, 7] [%] | pest or weed control at 140 g/ha [1, 7] [%] | pest or weed control at 35 g/ha [1, 8] [%] | pest or weed control at 70 g/ha [1, 8] [%] | pest or weed control at 140 g/ha [1, 8] [%] | pest or weed control at 35 g/ha [2, 9] [%] | pest or weed control at 70 g/ha [2, 9] [%] | further results
Nc1nc(-c2cc3c(cc2F)OC(F)(F)O3)nc(C(=O)O)c1Cl [Compound 57] | 0 to 29 | 0 to 29 | 0 to 29 | 0 to 29 | 0 to 29 | 0 to 29 | 0 to 29 | 0 to 29 | 85 to 94 | 45 to 59 | 85 to 94 | 95 to 100 | 0 to 29 | 0 to 29 | 0 to 29 | 0 to 29 | 60 to 74 | 95 to 100 | 85 to 94 | 95 to 100 | pest or weed control at 140 g/ha [2, 9]: 95 to 100%; pest or weed control at 35 g/ha [2, 10]: 45 to 59%; pest or weed control at 70 g/ha [2, 10]: 0 to 29%; pest or weed control at 140 g/ha [2, 10]: 45 to 59%; pest or weed control at 35 g/ha [2, 11]: 0 to 29%; pest or weed control at 70 g/ha [2, 11]: 30 to 44%; pest or weed control at 140 g/ha [2, 11]: 45 to 59%; pest or weed control at 35 g/ha [2, 12]: 0 to 29%; pest or weed control at 70 g/ha [2, 12]: 0 to 29%; pest or weed control at 140 g/ha [2, 12]: 0 to 29%; pest or weed control at 35 g/ha [2, 13]: 0 to 29%; pest or weed control at 70 g/ha [2, 13]: 0 to 29%; pest or weed control at 140 g/ha [2, 13]: 30 to 44%; pest or weed control at 35 g/ha [2, 14]: 0 to 29%; pest or weed control at 70 g/ha [2, 14]: 0 to 29%; pest or weed control at 140 g/ha [2, 14]: 0 to 29%
COC(=O)c1nc(-c2ccc3c(c2F)OC(F)(F)O3)nc(N)c1Cl [Compound 58] | 95 to 100 | 95 to 100 | 95 to 100 | 0 to 29 | 0 to 29 | 60 to 74 | 0 to 29 | 45 to 59 | 95 to 100 | 75 to 84 | 75 to 84 | 75 to 84 | 0 to 29 | 0 to 29 | 75 to 84 | 95 to 100 | 95 to 100 | 95 to 100 | 75 to 84 | 85 to 94 | pest or weed control at 140 g/ha [2, 9]: 95 to 100%; pest or weed control at 35 g/ha [2, 10]: 30 to 44%; pest or weed control at 70 g/ha [2, 10]: 45 to 59%; pest or weed control at 140 g/ha [2, 10]: 45 to 59%; pest or weed control at 35 g/ha [2, 11]: 45 to 59%; pest or weed control at 70 g/ha [2, 11]: 60 to 74%; pest or weed control at 140 g/ha [2, 11]: 75 to 84%; pest or weed control at 35 g/ha [2, 12]: 0 to 29%; pest or weed control at 70 g/ha [2, 12]: 0 to 29%; pest or weed control at 140 g/ha [2, 12]: 0 to 29%; pest or weed control at 35 g/ha [2, 13]: 0 to 29%; pest or weed control at 70 g/ha [2, 13]: 0 to 29%; pest or weed control at 140 g/ha [2, 13]: 0 to 29%; pest or weed control at 35 g/ha [2, 14]: 60 to 74%; pest or weed control at 70 g/ha [2, 14]: 60 to 74%; pest or weed control at 140 g/ha [2, 14]: 60 to 74%
Nc1nc(-c2ccc3c(c2F)OC(F)(F)O3)nc(C(=O)O)c1Cl [Compound 59] | 75 to 84 | 85 to 94 | 85 to 94 | 60 to 74 | 85 to 94 | 85 to 94 | 45 to 59 | 85 to 94 | 95 to 100 | 60 to 74 | 75 to 84 | 75 to 84 | 0 to 29 | 0 to 29 | 60 to 74 | 95 to 100 | 95 to 100 | 95 to 100 | 75 to 84 | 75 to 84 | pest or weed control at 35 g/ha [2, 10]: 45 to 59%; pest or weed control at 70 g/ha [2, 10]: 60 to 74%; pest or weed control at 140 g/ha [2, 10]: 60 to 74%; pest or weed control at 35 g/ha [2, 11]: 60 to 74%; pest or weed control at 70 g/ha [2, 11]: 60 to 74%; pest or weed control at 140 g/ha [2, 11]: 60 to 74%; pest or weed control at 35 g/ha [2, 12]: 0 to 29%; pest or weed control at 70 g/ha [2, 12]: 0 to 29%; pest or weed control at 140 g/ha [2, 12]: 0 to 29%; pest or weed control at 35 g/ha [2, 13]: 0 to 29%; pest or weed control at 70 g/ha [2, 13]: 0 to 29%; pest or weed control at 140 g/ha [2, 13]: 0 to 29%; pest or weed control at 35 g/ha [2, 14]: 0 to 29%; pest or weed control at 70 g/ha [2, 14]: 0 to 29%; pest or weed control at 140 g/ha [2, 14]: 85 to 94%
COC(=O)c1nc(-c2ccc3c(c2)OC(F)(F)O3)nc(N)c1Cl [Compound 60] | 60 to 74 | 75 to 84 | 85 to 94 | 45 to 59 | 60 to 74 | 60 to 74 | 0 to 29 | 30 to 44 | 45 to 59 | 75 to 84 | 75 to 84 | 75 to 84 | 30 to 44 | 60 to 74 | 75 to 84 | 75 to 84 | 75 to 84 | 85 to 94 | 60 to 74 | 75 to 84 | pest or weed control at 140 g/ha [2, 9]: 85 to 94%; pest or weed control at 35 g/ha [2, 10]: 30 to 44%; pest or weed control at 70 g/ha [2, 10]: 60 to 74%; pest or weed control at 140 g/ha [2, 10]: 75 to 84%; pest or weed control at 35 g/ha [2, 11]: 60 to 74%; pest or weed control at 70 g/ha [2, 11]: 75 to 84%; pest or weed control at 140 g/ha [2, 11]: 85 to 94%; pest or weed control at 35 g/ha [2, 12]: 0 to 29%; pest or weed control at 70 g/ha [2, 12]: 0 to 29%; pest or weed control at 140 g/ha [2, 12]: 0 to 29%; pest or weed control at 35 g/ha [2, 13]: 45 to 59%; pest or weed control at 70 g/ha [2, 13]: 60 to 74%; pest or weed control at 140 g/ha [2, 13]: 60 to 74%; pest or weed control at 35 g/ha [2, 14]: 75 to 84%; pest or weed control at 70 g/ha [2, 14]: 85 to 94%; pest or weed control at 140 g/ha [2, 14]: 85 to 94%
